Converted amounts (≈) assume the structure as drawn. One block for each compound: values may come before it.
Experiments:
C. glabrata ATCC 2001 = assay: Miconazole broth macrodilution test (optical density); type: cell-based, Candida glabrata
Description: (§1) The strains of Candida being used in the present study were purchased from the American Type Culture Collection (ATCC). Specifically, the following biotypes were used: C. albicans ATCC 10231, C. parapsilosis ATCC 22019, C. krusei ATCC 6258, C. glabrata ATCC 2001 and C. tropicalis ATCC 750 (14). The strains of lactobacilli of this study, all isolated from vaginal swabs of healthy female subjects or directly brushing the intestinal mucosa of healthy humans, were classified based on their phenotypic and genotypic characteristics: L. fermentum LF5 (DSM 32277), L. fermentum LF09 (DSM 18298), L. fermentum LF10 (DSM 19187) and L. fermentum LF11 (DSM 19188).
(§2) The probiotic strains were cultured overnight in De Man, Rogosa and Sharpe (MRS) medium (Difco, B D, Maryland). In all the experiments, fresh culture media for all the strains of Candida were used. Before the experiment, the single strains of Candida were cultured in Sabouraud Dextrose Broth (Difco, B D, Maryland), an optimal medium for yeasts, for 48 hours under aerobic conditions.
(§3) Evaluation of the fungicidal activity. The minimum inhibitory concentration (MIC) for fluconazole was determined by E-test (bioMerieux Italy, Florence) with MHE agar. The plates were incubated under aerobic conditions at 30° C. and read after 24 hours. Furthermore, since there is no specific E-test for miconazole, the MIC was determined by using the broth macrodilution method. We assessed the activity of serially diluted fluconazole and miconazole (Sigma-Aldrich, Missouri, USA) (from […] to […]) against the Candida strains. Serial dilutions of azoles were prepared in Sabouraud Dextrose Broth in the presence of strains of Candida and broths were incubated under aerobic conditions at 30° C. and then read at an optical density (DO) of 560 nm.

[1] = tested on: C. parapsilosis ATCC 22019; assay: as above; type: cell-based, Candida parapsilosis
Description: as §1, §2, §3

C. tropicalis ATCC 750 = assay: as above; type: cell-based, Candida tropicalis
Description: as §1, §2, §3

Candida albicans = assay: Single-blind clinical study of LF5 vaginal capsules compared with miconazole; type: in vivo, human
Description: 100 patients with vaginal candidiasis, average age of 38.0 years (range 19-61 years) randomly assigned to two groups, which resulted homogeneous, each of 50 patients treated with miconazole or LF5 dosed at ≤10^9 in vaginal capsule formulation at a dosage of 1 vaginal capsule at night for three consecutive days, according to the single-blind experimental design were treated.
No discontinuations during the treatment nor during the two weeks of post-treatment observation occurred; thus two groups of 50 observations for efficacy and tolerability are provided.

C. albicans ATCC 10231 = assay: Miconazole broth macrodilution test (optical density); type: cell-based, Candida albicans
Description: as §1, §2, §3

C. krusei ATCC 6258 = assay: as above; type: cell-based, Candida krusei
Description: as §1, §2, §3

[2] = tested on: Candida glabrata ATCC 2001; assay: Fluconazole MIC by E-test; type: cell-based; conditions: Nakaseomyces glabratus, ATCC2001; E_test, range 0.016-256 μg/ml; read-out: MIC (minimum inhibitory concentration)
Description: as §1, §3

[3] = tested on: Candida parapsilosis ATCC 22019; assay: Fluconazole MIC by E-test; type: cell-based; conditions: Lodderomyces parapsilosis, ATCC22019; E_test, range 0.016-256 μg/ml; read-out: MIC (minimum inhibitory concentration)
Description: as §1, §3

Candida krusei ATCC 6258 = assay: Fluconazole MIC by E-test; type: cell-based; conditions: Pichia kudriavzevii, ATCC6258; E_test, range 0.016-256 μg/ml; read-out: MIC (minimum inhibitory concentration)
Description: as §1, §3

[4] = tested on: Candida tropicalis ATCC 750; assay: Fluconazole MIC by E-test; type: cell-based; conditions: ATCC750, E_test, range 0.016-256 μg/ml, read-out: MIC (minimum inhibitory concentration)
Description: as §1, §3

[5] = Miconazole 1 μg/ml, broth macrodilution

- MIC ([1]; Lodderomyces parapsilosis, ATCC22019, C. parapsilosis ATCC 22019): 1000 µg/mL (≈ 2400 µM)
Structure (SMILES): Clc1ccc(COC(Cn2ccnc2)c2ccc(Cl)cc2Cl)c(Cl)c1 (stereo not drawn) [Miconazole, miconazole]
- optical density, OD (C. glabrata ATCC 2001; Miconazole 1.000 μg/ml): 2.198
- optical density, OD (C. glabrata ATCC 2001; [5]): 2.260
- optical density, OD (C. glabrata ATCC 2001; Miconazole 2.50 μg/ml): 2.260
- optical density, OD (C. glabrata ATCC 2001; Miconazole 5.00 μg/ml): 2.246
- optical density, OD (C. glabrata ATCC 2001; Miconazole 50 μg/ml): 2.239
- optical density, OD (C. glabrata ATCC 2001; Miconazole 250 μg/ml): 2.212
- optical density, OD (C. glabrata ATCC 2001; Miconazole 300 μg/ml): 2.215
- optical density, OD (C. glabrata ATCC 2001; Miconazole 500 μg/ml): 2.213
- optical density, OD ([1]; Miconazole 1.000 μg/ml): 0.295
- optical density, OD [1, 5]: 1.515
- optical density, OD ([1]; Miconazole 2.50 μg/ml): 1.115
- optical density, OD ([1]; Miconazole 5.00 μg/ml): 0.975
- optical density, OD ([1]; Miconazole 50 μg/ml): 0.894
- optical density, OD ([1]; Miconazole 250 μg/ml): 0.701
- optical density, OD ([1]; Miconazole 300 μg/ml): 0.415
- optical density, OD ([1]; Miconazole 500 μg/ml): 0.314
- optical density, OD (C. tropicalis ATCC 750; Miconazole 1.000 μg/ml): 1.931
- optical density, OD (C. tropicalis ATCC 750; [5]): 1.950
- optical density, OD (C. tropicalis ATCC 750; Miconazole 2.50 μg/ml): 1.927
- optical density, OD (C. tropicalis ATCC 750; Miconazole 5.00 μg/ml): 1.908
- optical density, OD (C. tropicalis ATCC 750; Miconazole 50 μg/ml): 1.846
- optical density, OD (C. tropicalis ATCC 750; Miconazole 250 μg/ml): 1.942
- optical density, OD (C. tropicalis ATCC 750; Miconazole 300 μg/ml): 1.937
- optical density, OD (C. tropicalis ATCC 750; Miconazole 500 μg/ml): 1.903
- local adverse events (Candida albicans; 50 patients per group): 6 cases
- Positive/negative (Candida albicans; 3 days, 1 vaginal capsule at night for three consecutive days, 50 patients per group): 3/47
- Positive/negative (Candida albicans; Final (two weeks of post-treatment observation), 50 patients per group): 8/42
- microbiological eradication of Candida, patients (Candida albicans; at the end of the three-day treatment): 94%
- frequency of local adverse events (Candida albicans; female, human, in vivo, 3 days): 12%
- Adverse events: Adverse (Candida albicans; number of 50 patients): 47
- Adverse events: Present (Candida albicans; number of 50 patients): 3
- Eradication: Failure (Candida albicans; number of 50 patients): 3
- Eradication: Relapse (Candida albicans; number of 50 patients): 5
- Eradication: Success (Candida albicans; number of 50 patients): 42
- Patient's opinion about efficacy: Acceptable (Candida albicans; number of 50 patients): 5
- Patient's opinion about efficacy: Excellent (Candida albicans; number of 50 patients): 38
- Patient's opinion about efficacy: Good (Candida albicans; number of 50 patients): 4
- Patient's opinion about efficacy: None (Candida albicans; number of 50 patients): 3
- Tolerability opinion: Acceptable (Candida albicans; number of 50 patients): 3
- Tolerability opinion: Excellent (Candida albicans; number of 50 patients): 44
- Tolerability opinion: Good (Candida albicans; number of 50 patients): 3
- Tolerability opinion: None (Candida albicans; number of 50 patients): 0
- optical density, OD (C. albicans ATCC 10231; Miconazole 1.000 μg/ml): 1.464
- optical density, OD (C. albicans ATCC 10231; [5]): 1.906
- optical density, OD (C. albicans ATCC 10231; Miconazole 2.50 μg/ml): 1.910
- optical density, OD (C. albicans ATCC 10231; Miconazole 5.00 μg/ml): 1.901
- optical density, OD (C. albicans ATCC 10231; Miconazole 50 μg/ml): 1.905
- optical density, OD (C. albicans ATCC 10231; Miconazole 250 μg/ml): 1.916
- optical density, OD (C. albicans ATCC 10231; Miconazole 300 μg/ml): 1.889
- optical density, OD (C. albicans ATCC 10231; Miconazole 500 μg/ml): 1.863
- optical density, OD (C. krusei ATCC 6258; Miconazole 1.000 μg/ml): 1.972
- optical density, OD (C. krusei ATCC 6258; [5]): 1.990
- optical density, OD (C. krusei ATCC 6258; Miconazole 2.50 μg/ml): 1.900
- optical density, OD (C. krusei ATCC 6258; Miconazole 5.00 μg/ml): 1.893
- optical density, OD (C. krusei ATCC 6258; Miconazole 50 μg/ml): 1.994
- optical density, OD (C. krusei ATCC 6258; Miconazole 250 μg/ml): 2.004
- optical density, OD (C. krusei ATCC 6258; Miconazole 300 μg/ml): 1.999
- optical density, OD (C. krusei ATCC 6258; Miconazole 500 μg/ml): 1.988

- MIC [2]: > 256 µg/mL
- MIC [3]: 1 µg/mL (≈ 3.27 µM)
- MIC (Candida krusei ATCC 6258): > 256 µg/mL
- MIC [4]: > 256 µg/mL
Structure (SMILES): OC(Cn1cncn1)(Cn1cncn1)c1ccc(F)cc1F [fluconazole]

Reference: US12343363B2, “Lactic acid bacterial composition for the treatment of bacterial vaginal infections by Gardnerella vaginalis and, if present, of concurrent fungal infections” (PROBIOTICAL S.P.A., priority 2016, dated 2025)
